Experiments:
Assay type in all cases: physicochemical
[1] = dispersed particle size (size of particles as dispersed in water), laser diffraction particle size analyzer
Description: Each of the samples thus prepared was measured for the dispersed particle size (i.e., the size of particles as dispersed in water) by means of a laser diffraction particle size analyzer (Nikkiso Co., Ltd.); in addition, the samples were analyzed for average size (at 50% cumulative frequency) and the proportion of particles not larger than 50 μm. […]

[2] = specific surface area measurement, nitrogen gas as adsorbate; conditions: Table 2
Description: Each of the samples thus prepared was measured for the dispersed particle size by means of a laser diffraction particle size analyzer; in addition, a specific surface area measurement was conducted before and after the granulation by means of a specific surface area measuring instrument (Shimadzu Corp.) using nitrogen gas as adsorbate.

[3] = particle size of the comminuted powder (hammer mill); conditions: comminuted with a hammer mill at about 3,000-3,600 rpm
Description: A dry powder sucralfate (as specified in Pharmacopoeia of Japan, JP) was comminuted with a hammer mill at about 3,000-3,600 rpm.

[4] = Table 2, sucralfate:polyethylene glycol mixing proportions
[5] = Table 2, sucralfate:polyethylene glycol mixing proportions, melt granulated at 300 rpm to 65° C.

Dispersed particle size, Percent 50 μm and less [1, 4] [%]	Dispersed particle size, Average [1, 5] [μm]	Specific surface area [2] [m^2 /g]	Dispersed particle size, Average ([1]; Table 1, average size at 50% cumulative frequency, dispersed in water) [μm]	Dispersed particle size, Percent 50 μm and less ([1]; Table 1, dispersed in water) [%]	Substance	particle size of comminuted powder, in words [3]
86.2	18.6	1.6	–	–	sucralfate [Sucralfate of JP]	–
100.0	4.4	5.1	4.4	100.0	sucralfate [Comminuted sucralfate powder]	entirely composed of particles not larger than 50 μm

Source: US5718923A, “Melt granulated sucralfate preparations and a process for their production” (Chugai Seiyaku Kabushiki Kaisha, priority 1994, dated 1998)
